Source: patent publication US9925398B2, “Angiogenic peptide” (NOVACELL TECHNOLOGY INC., priority 2008, dated 2018)

How the values were obtained:
[1] = tested on: HUVECs; test: Tube formation assay on Matrigel; format: cell-based, human; details: 24 h
Experimental: As described previously in M. S. Lee, et al., J Immunol 177 (2006), pp. 5585-5594, HUVECs were seeded on a layer of previously polymerized Matrigel with SFKLRY-NH2 (SEQ ID NO: 2), its scrambled sequence FYSRLK-NH2, S1P or VEGF in the presence or absence of VEGF neutralizing antibody. After 24 h of incubation, changes in cell morphology were observed through a phase-contrast microscope and photographed. To measure the formation of the capillary network, the total tube length per field was measured at 40× magnification with the scale. Three different fields were analyzed per well.
FIGS. 2A-2C show SFKLRY-NH2 (SEQ ID NO: 2) induces proliferation, migration, and tube formation in HUVECs. (A) The effect of SFKLRY-NH2 on proliferation of HUVECs. […] After 48 h of incubation, the activity of DNA synthesis was counted with a liquid scintillation counter. […] After wounding, HUVECs were incubated with indicated concentration of SFKLRY-NH2 (SEQ ID NO: 2) (0.1-10 μM) for 16 h and then migrated HUVECs beyond the reference line were counted. […] After incubation for 24 h, the tubular-like structures were photographed and the length of tube formation was measured. […]
FIGS. 6A-6B show anti-VEGF antibody suppress SFKLRY-NH2 (SEQ ID NO: 2)-induced tube formation in HUVECs. […] After incubation for 24 h, the tubular-like structures were photographed and the length of tube formation was measured. […]

[2] = tested on: Rat aortic explants; test: Aortic ring assay (vessel sprouting ex vivo); format: cell-based; details: 1 μM; 7 days
Experimental: The method developed by Nicosia and Ottinetti in In Vitro Cell Dev Biol 26 (1990), pp. 119-128 was used with some modifications. Aortas were harvested from 6-week-old Sprague-Dawley rats. After removing the surrounding fibro-adipose tissues, the rings were immersed in Matrigel in wells within culture dishes. The aortic rings were cultured (5% CO2, 37° C.) in serum-free M199 containing SFKLRY-NH2 (SEQ ID NO: 2), S1P, FYSRLK-NH2, or VEGF in the presence or absence of PTX or U73122. On day 7, sprouting from aortic explants was measured.
To address whether SFKLRY-NH2 (SEQ ID NO: 2) plays a role in sprouting of vascular endothelial cells ex vivo, aortic rings were analyzed in the presence of various stimuli including 1 μM SFKLRY-NH2 (SEQ ID NO: 2), 10 ng/mL VEGF, 10 nM S1P, and 10% FBS. […] Rat aortic explants in Matrigel were incubated with M-199 harboring SFKLRY-NH2 (SEQ ID NO: 2) (1 μM), FYSRLK-NH2 (1 μM), S1P (10 nM), VEGF (10 ng/mL), SFKLRY-NH2 (SEQ ID NO: 2) (1 μM) with U73122 (10 μM) or PTX (50 ng/mL), or 10% FBS and photographed after incubation for 7 days. Three independent experiments were then conducted, each in duplicate.

[3] = tested on: HUVECs; test: [Ca2+]i increase in HUVECs; format: cell-based, human; details: 10 μM
Experimental: Cells were incubated with 4 μM Fura-2 AM and 250 μM sulfinpyrazone in serum-free DMEM medium at 37° C. for 30 min with continuous stirring. The cells were then washed with Locke's solution (M. Faehling, et al., FASEB J 16 (2002), pp. 1805-1807) and diluted to 2×10^6 cells/mL. 50 μL aliquots of cell suspension were added to each well of a 96-well plate, and the change in fluorescence ratio was determined at dual excitation wavelengths of 340 and 380 nm and emission wavelength of 500 nm following addition of peptides. Plates were read immediately following the addition of peptide pools, resulting in a time delay of approximately 5 s between peptide addition and detection by the FLEXstation (Molecular Devices). Negative and positive controls were run simultaneously with test samples to ensure that all samples were subjected to identical conditions. The calibration of the fluorescence ratio in terms of [Ca^2+]i was performed according to Grynkiewicz et al. J Biol Chem 260 (1985), pp. 3440-3450.
To verify that SFKLRY-NH2 (SEQ ID NO: 2) induces [Ca^2+]i increase in human endothelial cells, intracellular Ca^2+ mobilization in primary cultured human umbilical vein endothelial cells (HUVECs) were measured. Treatment with SFKLRY-NH2 (SEQ ID NO: 2) induced [Ca^2+]i increase in HUVECs with the half-maximal effect at 1.4±0.15 μM. […]

Compound | Tube-forming activity (length of tube formation) ([1]; 100 nM) | vessel sprouting activity (outgrowth of endothelial cells) [2] | Ca2+ mobilization [3] | Tube-forming activity (length of tube formation) ([1]; 10 μM)
CCCCCCCCCCCCC/C=C/[C@@H](O)[C@@H](N)COP(=O)(O)O [S1P, sphingosine-1-phosphate] | 19.69±0.32 | – | – | –
FYSRLK-NH2 | – | negligible activity | did not trigger Ca^2+ mobilization | 8.96±1.14
